Results published in paper PMC8241751, “Influence of the Dabcyl group on the cellular uptake of cationic peptides: short oligoarginines as efficient cell-penetrating peptides” (Amino Acids, 2021).
“And” between values parts separate entries of the source, which are not always exact repeats. Equal values may be shown once. Where a SMILES comes first, the peptide text is derived from it. The star is where a group is joined. 5FAM = O=C1OC2(c3ccc(O)cc3Oc3cc(O)ccc32)c2ccc(C(=O)*)cc21; X1 = CN(C)c1ccc(/N=N/c2ccc(C(=O)*)cc2)cc1

Columns and labels:
[1] = test system: CHO-K1 cells; assay: Absolute quantification of total internalised peptide by fluorometry; settings: for Total (37 °C–4 °C) (pmoles) Endocyt. / 4 °C/37 °C (Fluoro): CHO-K1, 60 min; for Total (37 °C–4 °C) (pmoles) Endocyt.: difference of fluorometry values at 37 °C and 4 °C; for 4 °C/37 °C (Fluoro): internalisation ratio by fluorometry; for Total 4 °C (pmoles) Transloc. / Total 37 °C (pmoles) Endocyt. + Transloc.: one million CHO-K1 cells, DMEM-F12, 60 min, cell lysis, fluorometry 525 nm vs calibration curve, mean values; for Total 4 °C (pmoles) Transloc.: pronase wash; for Total 37 °C (pmoles) Endocyt. + Transloc.: trypsin wash
Procedure: We used the quantification method described earlier (Illien et al. [2016]). […] After incubation with peptides and washing the cells with HBSS, 500 μL 0.05% trypsin/EDTA 0.05% (37 °C) or 500 µL pronase 0.05% in 100 mM Tris pH 7.4 (4 °C) was added for 5 min to hydrolyze the remaining extracellular peptide, the membrane-bound peptide and to detach cells. After addition of 100 µL enzyme inhibitors (complete mini at 4 °C (Roche) or trypsin inhibitor (soybean inhibitor 5 mg/mL) at 37 °C mixed with 100 μL bovine serum albumin (1 mg/mL), cells were transferred into a microtube, centrifuged, washed with 1 mL 50 mM Tris buffer pH 7.4, 0.1% BSA, and lysed in 200 μL 50 mM Tris pH 7.4, 1 M NaCl, 1% Nonident P40. The samples were then sonicated for 15 min (to homogenise samples) and centrifugated for 10 min at 16.000 g. Fluorescence intensity in the supernatants was monitored with a MOS 200 M fluorimeter (Biologic SAS) and the maximal intensity was detected around λ = 525 nm. The maximal intensity was retained for the calibration curve and for quantification of samples. The amount of internalised peptides was calculated by comparing the fluorescence intensity of the sample with the calibration curve. For the calibration curve, we prepared a range of peptide amounts (from 2 to 500 pmol) in the lysis buffer (50 mM Tris pH 7.4, 1 M NaCl, 1% Nonidet P40) in the presence of one million suspended cells. The samples were sonicated 15 min and centrifuged at 16.000 g for 10 min. Fluorescence intensity in the supernatants was monitored with a MOS 200 M fluorimeter (Biologic SAS, France) and the maximal intensity was detected around λ = 525 nm. The fluorescence signal of peptides only was obtained by subtracting the fluorescence intensity of cell lysates (autofluorescence) from the fluorescence intensity of the sample.

[2] = test system: CHO-K1 cells; assay: Relative quantification of total internalised peptide by flow cytometry; settings: CHO-K1, 1 h, DMEM-F12, internalisation ratio by flow cytometry, intact cells, 20.000 cells
Procedure: After incubation and washing the cells with HBSS, 500 μL 0.05% trypsin/EDTA 0.05% (37 °C) or 500 µL pronase 0.05% in 100 mM Tris-buffer (4 °C) was added for 5 min to hydrolyze the remaining extracellular peptide, the membrane-bound peptide and to detach cells. After addition of 100 µL enzyme inhibitors (complete mini at 4 °C (Roche) or trypsin inhibitor (soybean inhibitor 5 mg/mL) at 37 °C mixed with 100 μL bovine serum albumin (1 mg/mL). Cells were transferred into a microtube, centrifuged, washed with 1 mL 50 mM Tris-buffer pH 7.4, 0.1% BSA, and the cell pellet was suspended in 400 μL of PBS. The fluorescence of individual cells was analysed with a FACS Calibur flow cytometer. 20.000 cells were measured for each experimental condition. The mean fluorescence of a sample was obtained by subtracting the autofluorescence of cells from the measured mean fluorescence of cells in the presence of the peptide.

[3] = test system: HL-60 cells; assay: Cellular uptake by flow cytometry on HL-60 cells; type: cell-based, human; settings: HL-60, 90 min, 37 °C, serum-free, concentrations of the two values not stated, Dabcyl quenches Cf
Procedure: HL-60 cells were cultured as described above. To study the cellular uptake of fluorescent labelled compounds, 10^5 cells per well were plated on 24-well plates. After 24 h incubation at 37 °C, cells were treated with the compounds solved in the corresponding serum-free media for 90 min. The cellular uptake was analysed at 1, 5 and 10 µM concentrations. Cells treated with serum-free media for 90 min were used as control. After incubation, treatment solutions were removed and the cells were treated with 100 μL trypsin for 2 min to remove the membrane proteins in order to eliminate non-specific binding of conjugates. The effect of trypsin was terminated by 900 μL HPMI (glucose, NaHCO3, NaCl, HEPES, KCl, MgCl2, CaCl2, Na2HPO4·2H2O) (Kapus et al. [1994]) containing 10% foetal calf serum, and the cells were transferred from the plate to FACS-tubes. Cells were centrifuged at 216 g at 4 °C for 5 min and the supernatant was removed. After this procedure, cells were resuspended in 500 µL HPMI, and the intracellular fluorescence intensity of HL-60 cells was monitored (on channel FITC LP505; emission at λ = 505 nm; LP 505, BP 530/30) by flow cytometry (BD LSR II, BD Bioscience, San Jose, CA, equipped with 488 nm; Coherent Sapphire, 22 mW laser.) which is proportional to the cellular uptake. Data were analysed with FACSDiVa 5.0 software.

[4] = test system: MCF-7 cells; assay: In vitro cytostatic activity (MTT) on MCF-7; type: cell-based, human; settings: 3 h incubation, then 3 days in serum-containing medium, MTT assay, ± sd, three independent experiments with four parallels
Procedure: The cells (HL-60 or MCF-7) were grown to confluency and were plated into 96-well plate with initial cell number of 5 × 10^3 per well. After 24 h incubation at 37 °C, cells were treated with the compounds at 1.28 × 10^–3–100 μM concentration range for 3 h in 200 μL final volume. Control cells were treated with serum free medium at 37 °C for 3 h. After incubation the cells were washed twice with serum free medium. For the analysis of the in vitro cytostatic effect, cells were cultured for an additional 72 h in serum containing medium. On day 4, MTT assay was carried out to determine the IC50 values of the compounds. Briefly, 45 μL of MTT solution was added to each well (2 mg/mL, dissolved in serum-free medium). […] The precipitated purple crystals were dissolved in 100 μL DMSO and the absorbance was determined at λ = 540 nm and λ = 620 nm using ELISA plate reader (iEMSReader, Labsystems, Finland). The percent of cytostasis was calculated using the following equation: Cytostatic effect (%) = [1 − (ODtreated/ODcontrol)] × 100; where ODtreated and ODcontrol correspond to the optical densities of the treated and the untreated control cells, respectively. […] The curves were defined using MicrocalTM Origin (version 9.2) software: cytostasis was plotted as a function of concentration, fitted to a sigmoidal curve, and based on this curve, the IC50 value was determined.

[5] = test system: HL-60 cells; assay: In vitro cytostatic activity (MTT) on HL-60; type: cell-based, human; settings: HL-60; 3 h incubation, then 3 days in serum-containing medium; MTT assay; ± sd, three independent experiments with four parallels
Procedure: The cells (HL-60 or MCF-7) were grown to confluency and were plated into 96-well plate with initial cell number of 5 × 10^3 per well. After 24 h incubation at 37 °C, cells were treated with the compounds at 1.28 × 10^–3–100 μM concentration range for 3 h in 200 μL final volume. Control cells were treated with serum free medium at 37 °C for 3 h. After incubation the cells were washed twice with serum free medium. For the analysis of the in vitro cytostatic effect, cells were cultured for an additional 72 h in serum containing medium. On day 4, MTT assay was carried out to determine the IC50 values of the compounds. Briefly, 45 μL of MTT solution was added to each well (2 mg/mL, dissolved in serum-free medium). Following the 4 h incubation, plates were centrifuged at 900 g for 5 min, and the supernatant was removed. The precipitated purple crystals were dissolved in 100 μL DMSO and the absorbance was determined at λ = 540 nm and λ = 620 nm using ELISA plate reader (iEMSReader, Labsystems, Finland). The percent of cytostasis was calculated using the following equation: Cytostatic effect (%) = [1 − (ODtreated/ODcontrol)] × 100; where ODtreated and ODcontrol correspond to the optical densities of the treated and the untreated control cells, respectively. In each case three independent experiments were carried out with four parallel measurements. […] The curves were defined using MicrocalTM Origin (version 9.2) software: cytostasis was plotted as a function of concentration, fitted to a sigmoidal curve, and based on this curve, the IC50 value was determined.

[6] = test system: MDA-MB-231 cells; assay: In vitro cytostatic activity (MTT) on MDA-MB-231; type: cell-based, human; settings: 3 h incubation, then 3 days in serum-containing medium, MTT assay, ± sd

## CN(C)c1ccc(/N=N/c2ccc(C(=O)N[C@@H](CCCNC(=N)N)C(=O)N[C@@H](CCCNC(=N)N)C(=O)N[C@@H](CCCNC(=N)N)C(=O)N[C@@H](CCCNC(=N)N)C(=O)N[C@@H](CCCCNC(=O)c3ccc4c(c3)C(=O)OC43c4ccc(O)cc4Oc4cc(O)ccc43)C(N)=O)cc2)cc1 [Dabcyl–Arg4–Lys(Cf)–NH2] (X1-RRRRK(5FAM)-NH2)
[1]; [peptide] 1 μM
  Total (37 °C–4 °C) (pmoles) Endocyt.: 0.3 pmol
  4 °C/37 °C (Fluoro): 0.57
  Total 4 °C (pmoles) Transloc.: 0.4 ± 0.06 pmol
  Total 37 °C (pmoles) Endocyt. + Transloc.: 0.7 ± 0.1 pmol
[1]; [peptide] 2.5 μM
  Total (37 °C–4 °C) (pmoles) Endocyt.: 1.3 pmol
  4 °C/37 °C (Fluoro): 0.43
  Total 4 °C (pmoles) Transloc.: 0.9 ± 0.1 pmol
  Total 37 °C (pmoles) Endocyt. + Transloc.: 2.2 ± 0.2 pmol
[1]; [peptide] 5 μM
  Total (37 °C–4 °C) (pmoles) Endocyt.: 6 pmol
  4 °C/37 °C (Fluoro): 0.22
  Total 4 °C (pmoles) Transloc.: 1.8 ± 0.1 pmol
  Total 37 °C (pmoles) Endocyt. + Transloc.: 7.8 ± 0.9 pmol
[1]; [peptide] 10 μM
  Total (37 °C–4 °C) (pmoles) Endocyt.: 26 pmol
  4 °C/37 °C (Fluoro): 0.14
  Total 4 °C (pmoles) Transloc.: 4.2 ± 0.3 pmol
  Total 37 °C (pmoles) Endocyt. + Transloc.: 30 ± 3.3 pmol
[2]; [peptide] 1 μM
  4 °C/37 °C (Flow cyto.): 0.17
[2]; [peptide] 2.5 μM
  4 °C/37 °C (Flow cyto.): 0.12
[2]; [peptide] 5 μM
  4 °C/37 °C (Flow cyto.): 0.10
[2]; [peptide] 10 μM
  4 °C/37 °C (Flow cyto.): 0.04
[3]
  Fluorescence intensity of the cells, times higher than hexaarginine: 1.6 times and 2.8 times

## COc1cccc2c1C(=O)c1c(O)c3c(c(O)c1C2=O)C[C@@](O)(C(C)=O)C[C@@H]3O[C@H]1C[C@H](NC(=O)CCC(=O)O)[C@H](O)[C@H](C)O1 [Suc–Dau, reference compound]
[4]
  IC50: 24.5 ± 7.1 µM
[5]
  IC50: 33.5 ± 1.1 µM
[6]
  IC50: > 100 µM

## Dabcyl–RRRRK(MTX)–NH2 [Dabcyl–Arg4–Lys(MTX)–NH2]
[6]
  IC50: 70.9 ± 30.1 µM

## Dabcyl–RRRRRRK(MTX)–NH2 [Dabcyl–Arg6–Lys(MTX)–NH2]
[4]
  IC50: 46.4 ± 18.5 µM
[6]
  IC50: 50.2 ± 16 µM
